Reference: patent US6605754B1, “DNA constructs and plants incorporating them” (priority 1992, dated 2003)

Legend:
[1] = test system: alc expression cassette 35S-alcR/alcA-CAT (CAT reporter gene expression); experiment: CAT activity in leaves of stably transformed tobacco after leaf paint with inducer; format: in vivo
Method: Cyclohexanone was applied to the plant leaves as a paint. The cyclohexanone paint consisted of a 10% solution of 950 g/L cyclohexanone, 35 g/L syperonic NDE 1800, 16.5 g/L Tween 85 in thickener. Both surfaces of the leaf were applied with paint at 100 μl solution per 16-25 cm^2 of leaf surface, on days 0 and 2. Leaf tissue was harvested prior to inducer application and at appropriate times after the second application of paint. 1 cm^2 of leaf tissue was removed with a sterile scalpel, put in an eppendorf, and immersed in liquid nitrogen. CAT assays were undertaken within 4 hours of leaf sampling.
The leaf tissue was allowed to defrost at room temperature for several minutes after storage in liquid nitrogen. A sterile micropestle was used to grind the leaf tissue in the eppendorf for 30 seconds and then 100 μl of 100 mM Tris pH 7.8 was added. The plant mixture was then vortexed for 20 seconds and centrifuged at 13,000 revs/min for 5 minutes. The supernatant was transferred to a new eppendorf. 50 μl of leaf extract was used for a CAT assay and the rest was used to determine the protein concentration wit the Bradford's method.
CAT assays were undertaken according to the Dupont method as described in Example 4.
The data obtained from this analysis are shown in FIG. 9: at each time point, results are given in the order S34:D3:T1. Leaves were treated with cyclohexanone leaf paint on day 0 and day 2. Samples of leaf tissue were taken immediately prior to each treatment (0-0 and 2-0 in FIG. 9) and thereafter at seven intervals up until day 3. Protein extracts were made from the leaf samples and CAT activity determined in the samples using the diffusion assay described above.
The leaves of the plants were painted with a 10% iso-propanol solution at 0 and 60 minutes and the CAT expression of leaf samples was measured at 240 minutes. The CAT expression found in the alcA-CAT and alcA-CAT/35S-alcR transgenic plants at 0 minutes was low as it was in the control untransformed tobacco plants.

[2] = test system: ADHI expressed from the alcA gene; settings: Creaser et al 1984 / shown previously; cited from earlier work
[3] = test system: alcA:35S chimeric promoter (CAT reporter gene expression); experiment: CAT expression from wild type A nidulans alcA-CAT transformants GA2-1 and GA2-5; format: cell-based, Aspergillus nidulans
Method: Conidial suspensions of A nidulans were grown in supplemented minimal medium containing 0.1% fructose as the carbon source, for 20 hours at 200 revs/min in an orbital incubator at 37° C. Inducing chemical was added to the mycelia at 20 hours and allowed to grow for a further 4 hours. The mycelia was harvested as before. Uninduced mycelia was allowed to grow for 24 hours in the medium described above.
300 mgs of mycelia, frozen in liquid nitrogen, was ground in a chilled pestle and mortar with an equal amount of acid washed sand for 20 seconds. 1 ml of extraction buffer, (0.1 M Tris pH 7.5), was added and the mycelia ground for a further 30 seconds. Another 1 ml of extraction buffer was added and the mycelia was ground again for 30 seconds. 1 ml of the ground mycelia mixture was transferred into eppendorfs and centrifuged at 13,000 revs/min for 5 minutes in a microcentrifuge. The supernatant was transferred to new eppendorfs and the protein concentration estimated using the Bradford's assay.
Stably transformed A nidulans was obtained by co-transforming a pyrG89 strain with the pDJB3 and palcA-CAT/pUC plasmids using the PEG method. Plasmid palcA-CAT/pUC contains the CAT reporter gene between the alcA:35S chimeric promoter and the nos transcription terminator. Two independent transformants (GA2-1 and GA2-5) were obtained which contained uninterrupted copies of the alcA-CAT construct. This was shown by probing genomic DNA, restricted with HindIII, with the 0.7 kb SalI fragment of the CAT gene.
The CAT activity of the alcA-CAT A nidulans transformants was measured when they were grown under a variety of conditions. FIG. 4 is a graph showing CAT expression from the GA2-1 and GA2-5 transformants (wild type with alcA-CAT construct) growing in 0.1% fructose (F) or 1% glucose (G) in the absence or presence of 50 mM ethyl methyl ketone as inducer (I). […] The induction of CAT was prevented when the transformants were grown in 1% glucose even in the presence of inducer indicating the carbon catabolyte repression function of the alcA promoter was retained.
FIG. 5 is a graph showing the effect of cyclohexanone concentration (mM) on CAT expression in the transformant GA2-1 growing in 0.1% fructose (F) or 1% glucose (G).

Row | SMILES | increase in CAT activity ([1]; 10% solution painted at 0 and 60 minutes, measured at 240 minutes, alcA-CAT, alcA-CAT/35S-alcR and control plants) | effect on the alc expression cassette ([1]; tobacco plants) | inducer strength for alcA / ADHI [2] | concentration of optimal inducing ability (concentration curve) ([3]; GA2-1 transformant) [mM] | induction of CAT expression ([3]; GA2-1 transformant) | effect on CAT activity [1] | CAT expression level after application to leaves ([1]; plant D3 (35S-alcR/alcA-CAT), cyclohexanone leaf paint) | time of peak CAT activity after the second inducing treatment ([1]; plant D3, leaf paint on day 0 and day 2) [min] | CAT activity as % of the maximum activity seen in the 35S-alcR/alcA-CAT leaves ([1]; plants T1 and S34 after cyclohexanone leaf paint) | CAT activity of the alcA-CAT reporter construct ([3]; GA2-1 and GA2-5, 0.1% fructose, 50 mM inducer) | induction of CAT ([3]; GA2-1 and GA2-5, 1% glucose, 50 mM inducer)
1 | CC(C)O [iso-propanol, propan-2-ol] | no significant increase | no apparent effect | weak inducer |  |  |  |  |  |  |  | 
2 | O=C1CCCCC1 [cyclohexanone] |  |  | potent inducer | 25 | found to induce CAT expression | no effect | high CAT expression level | 160 | 5-20% |  | 
3 | CCC(C)=O [EMK, butan-2-one (ethyl methyl ketone)] |  |  |  |  |  |  |  |  |  | high | prevented
